# Entries after “also recorded” stand apart in the source; their conditions may differ.
# Legend:
# [1] = test system: SKOv3, OVCAR8, HCC5032, or MDA-MB-231 cells; experiment: DNA damage: γ-H2AX staining and comet assay with olaparib; type: cell-based; details: SKOv3, OVCAR8, HCC5032, MDA-MB-231
# Protocol: Cells were trypsinized and resuspended at 2×10^5/mL in cold PBS without Ca^2+ and Mg^2+. Cells were mixed with pre-warmed comet agarose at 1:10 (v/v) ratio. 10 uL of cell agarose mixture was plated onto comet slides pre-coated with 75 uL of agarose and chilled at 4° C. for 15 min to set. Cells were lysed in 25 mL of Lysis buffer at 4° C. for 2 hrs and washed with alkaline solution (pH 10). Comet slides were electrophoresed in cold alkaline solution at 20V for 15 min. Slides were rinsed with water and dried in 70% ethanol for 5 min. Slides were then stained with Vista Green DNA dye and viewed using an Olympus epifluorescence microscope with a FITC filter. Images were captured using a 20× objective. […] Experiments were run in triplicate and Olive Tail Moment was measured using CaspLab1.2.3β2 software (CaspLab.com). Olive Tail Moment=Tail DNA %×Tail Length. 50-200 Cells were measured for each treatment and experiments were repeated twice independently to ensure reproducibility.
# Cells on 22×22 mm coverslips were fixed in 4% formaldehyde in PBS (Thermo Fisher, J19943-K2) and permeabilized with 0.1% Triton X-100 (Sigma, X100) in PBS for 15 min. Cells were blocked with 5% BSA in PBS for 30 min and then stained with antibody overnight at 4° C., followed by secondary antibody and DAPI for 1 hr. […] After 24-hrs incubation, cells were fixed in 4% formaldehyde in PBS. Cells were stained as described above. […] DNA damage visualized by γ-H2AX staining was evaluated by counting nuclear γ-H2AX puncta in each cell. […] After 8 hrs incubation, cells were fixed in 4% formaldehyde in PBS. Cells were stained as described above. Images were captured using an Olympus IX71 microscope and nuclear γ-H2AX puncta in each cells were counted using with Olympus CellSens Dimension software. HDAC5 (CST20458) and γ-H2AX (CST2577) antibodies were purchased from Cell Signaling Technology. Experiments were repeated twice independently to ensure reproducibility and 50-200 cells were counted for each treatment.
# [2] = test system: MDA-MB-231 xenograft; experiment: MDA-MB-231 mammary fat pad xenograft, Compound B and olaparib; type: in vivo, mice; details: 50 mg/kg, oral, 5 weeks
# Protocol: Forty female nu/nu mice were injected with 0.8×10^6 MDA-MB-231 cells into their fourth mammary fat pads. […] Tumors were measured every week as noted above (SKOv3 xenograft models).
# [3] = Pre-clinical toxicology studies; type: in vivo
# [4] = test system: MDA-MB-231 orthotopic xenografts; experiment: MDA-MB-231 orthotopic xenografts; type: in vivo, mice
# Protocol: To evaluate additive or synergistic interactions, a combination Index (CI value) was calculated with CalcuSyn software.
# [5] = test system: OVCAR8, SKOv3, OC316, OVCAR3, ES2, A2780, MDA2774, and IGROV1 cells; experiment: Short term cell proliferation (CellTiter-Glo), eight ovarian cancer cell lines; type: cell-based, human; details: single concentration of Compound B 0.75-1.25 μM; p<0.01
# Protocol: Cells were seeded in 6 replicates in black-walled and clear-bottomed 96-well plates and incubated overnight. […] The CellTiter-Glo luminescent cell viability assay (Promega) was used to evaluate the effect of treatment on cancer growth. This experiment was performed several times to optimize the concentration. […] GraphPad Prism 8 was used to generate growth curves and calculated IC50. CalcuSyn was used to evaluate additive or synergistic interactions, a combination Index (CI value).
# [6] = test system: OVCAR8, SKOv3, OC316, MDA4772 and ES2 ovarian cancer cell lines; experiment: Clonogenic survival assay, Compound B and carboplatin; type: cell-based; details: 12-14 days; five cell lines
# Protocol: Cell viability was measured with a bioluminescence assay as described in the Examples, and IC50 values were calculated. (B) Sensitivity to carboplatin. Eight ovarian cancer cell lines were treated as above with different concentrations of carboplatin as indicated. […] The drug concentration ratio is indicated in each plot. The combination index at 50% growth inhibition was calculated using CalcuSyn software. (E) Effect of SIK2 knockout on the carboplatin dose response curve. Cells were treated with different concentrations of carboplatin as indicated. IC50 values for (A-C, E) were calculated by GraphPad Prism 8. […] Four hundred OVCAR8 or SKOv3 ovarian cancer cells were seeded in 6-well plates in culture medium for 24 h. […] The graphs indicate the mean colony formation numbers with standard deviations.
# Cancer cells were seeded in 6-well plates at a density of 400 cells per well in culture medium for 24 h to permit cell adherence. […] After control colonies had grown to include at least 50 cells, cultures were fixed and stained with Coomassie blue (0.1% Coomassie brilliant blue R-250, 40% methanol, and 10% acetic acid) and counted. Colonies were counted from three independent experiments and the mean number of colonies and standard deviations calculated. Multiplicity adjusted p values for each treatment and control were determined.
# [7] = test system: OVCAR8, SKOv3, and OC316 ovarian cancer cell lines; experiment: Annexin V/PI apoptosis, Compound B and carboplatin; type: cell-based; details: 72 h; flow cytometry
# Protocol: Cells were dislodged and stained with Annexin V antibody and PI dye for flow cytometry. Representative images are shown on the left and the analysis of apoptotic population under different treatment conditions are on the right. (B) Effect of SIK2 knockout on carboplatin-induced apoptosis. SIK2 knockout (KO) and control cell lines were treated as in (A) and analyzed for apoptosis. The bars indicate the mean percentage of apoptotic cells with standard deviations.
# After completion of incubation, cells were harvested and washed with PBS two times. After washing, cells were re-suspended in 100 μL Annexin-binding buffer containing propidium iodide (PI) and FITC Annexin-V (Invitrogen) and incubated at ambient temperature for 15 min in the dark. After incubation, 200 μL of Annexin-binding buffer was added and stained cells were analyzed using a Beckman Coulter's Gallios Flow Cytometer.
# (§1) Many current cancer chemotherapies, including platinum-based drugs, exert their antitumor effect by triggering apoptosis in cancer cells. […] The inhibitor of apoptosis protein family (IAPs) includes an important group of proteins involved in the regulation of apoptosis. One member of this protein family, survivin, plays an important role in promoting tumor progression by deregulating apoptosis and cell division.
# [8] = test system: survivin; experiment: Survivin expression by western blot; type: cell-based; details: OC316 and OVCAR8; 48 h
# Protocol: Cell lysates were collected and survivin expression was measured by western blot analysis. The experiments were performed three times individually. Densitometry values were determined by Image J shareware (NIH) and normalized to the GAPDH loading control. The values relative to the untreated group were plotted at the bottom.
# Cells were incubated for 24-48 h with and without treatments and then harvested for western blot analysis. Briefly, cells were incubated in lysis buffer for 20 min on ice and centrifuged at 17,000×g for 10 min at 4° C. Protein concentration of cell lysates was determined with BCA reagent (Thermo Fisher Scientific, Houston, Tex., USA). Lysates were separated on 8-16% SDS-PAGE and transferred to polyvinylidene difluoride (PVDF) membranes. Immunoblots were probed with anti-survivin antibody (Novus; 1:2000, Centennial CO, USA) in 5% BSA overnight at 4° C. and HRP labeled secondary antibody was added for 1 h at RT. The signal was developed on X-ray films.
# as §1
# [9] = biological target: SIK1 (Homo sapiens, UniProt P57059); experiment: SIK isoform dose response; type: biochemical
# [10] = test system: OVCAR8, SKOv3, and OC316 ovarian cancer cell lines; experiment: γ-H2AX punctae and comet assay, Compound B and carboplatin; details: 24 h
# Protocol: (B) Cells were treated as described in (A) for 24 h. Then cells were dislodged, immobilized in agarose gel onto glass slide, and lysed. DNA was electrophoresed in alkaline buffer and stained by Vista Green. Olive tail moment (OTL) was measured as described in the Examples. Each plot depicts the mean of OTL (the bars indicate the standard deviation).
# The OxiSelect™ Comet Assay Kit (Cell Biolabs, Inc., San Diego, Calif., USA) was used to evaluate DNA damage with or without drug treatment. […] Slides were electrophoresed in alkaline buffer at 1 volt/cm for 30 min. The cells were stained with 1× Vista Green DNA Dye for 15 min at RT and then viewed with a 4× fluorescence microscope. The percentage of DNA in the tail were analyzed with Casplab_1.2.3b2 (CaspLab Comet Assay Software, CASPLab, casplab.com). At least 50 randomly selected cells were analyzed per sample.
# SIK1, sequence (P57059 whole entry, canonical isoform): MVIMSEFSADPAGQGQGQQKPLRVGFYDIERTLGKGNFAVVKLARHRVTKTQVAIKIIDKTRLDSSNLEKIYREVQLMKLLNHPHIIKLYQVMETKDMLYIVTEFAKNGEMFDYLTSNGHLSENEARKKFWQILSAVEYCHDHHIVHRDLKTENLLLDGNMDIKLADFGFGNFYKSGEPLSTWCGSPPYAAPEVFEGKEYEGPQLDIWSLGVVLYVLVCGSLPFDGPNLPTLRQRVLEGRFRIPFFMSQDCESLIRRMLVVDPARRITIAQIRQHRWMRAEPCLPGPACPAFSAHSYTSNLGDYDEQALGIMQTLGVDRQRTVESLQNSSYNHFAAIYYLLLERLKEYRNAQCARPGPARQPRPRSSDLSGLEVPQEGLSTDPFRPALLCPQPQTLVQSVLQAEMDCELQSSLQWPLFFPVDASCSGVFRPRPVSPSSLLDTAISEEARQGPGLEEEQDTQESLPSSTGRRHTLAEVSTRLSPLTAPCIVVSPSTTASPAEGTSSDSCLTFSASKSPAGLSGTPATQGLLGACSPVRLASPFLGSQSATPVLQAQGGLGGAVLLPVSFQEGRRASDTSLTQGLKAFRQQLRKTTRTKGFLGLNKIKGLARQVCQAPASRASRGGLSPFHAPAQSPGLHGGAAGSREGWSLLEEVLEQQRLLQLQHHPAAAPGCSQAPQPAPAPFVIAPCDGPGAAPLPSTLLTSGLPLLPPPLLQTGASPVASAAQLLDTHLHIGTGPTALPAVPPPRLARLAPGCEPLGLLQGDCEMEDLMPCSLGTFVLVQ
smiles,measurement,setting,value
"COc1c(F)cc(F)cc1-c1c[nH]c2ncc(-c3cnn(C4CCN(S(C)(=O)=O)CC4)c3)cc12 [Compound B, 3-(3,5-difluoro-2-methoxyphenyl)-5-(1-(1-(methylsulfonyl)piperidin-4-yl)-1H-pyrazol-4-yl)-1H-pyrrolo[2,3-b]pyridine]",levels of γ-H2AX and tailed DNA,[1],modestly increased
same,tumor burden / tumor volume,[2],remained unchanged
same,hematologic / hematopoietic toxicity,[3],minimal hematologic toxicity; also recorded: little effect on normal hematopoietic or organ function; also recorded: little or no hematopoietic toxicity
same,xenograft growth and survival,[4],inhibited xenograft growth and prolonged the survival
same,carboplatin dose response curve when Compound B was added,[5],shifted to the left in seven of eight ovarian cancer cell lines
same,clonogenic survival,[6],significantly enhanced carboplatin induced loss of clonogenic survival
same,apoptosis,[7],"induced apoptosis as a single agent, but also enhanced carboplatin-induced apoptosis"
same,survivin expression,[8],downregulation of survivin
same,IC50,[9],351 nM
same,comet tail moment induced with carboplatin,[10],further enhanced

# From patent publication US20220296583A1, “COMPOSITIONS AND METHODS FOR TREATMENT OF OVARIAN AND BREAST CANCER” (Board of Regents, The University of Texas System, priority 2021, published 2022)
